Values quoted from earlier work as cited in US20090175967A1, “METHODS FOR TREATMENT OF INTESTINAL CARCINOGENESIS WITH RICE BRAN” (priority 2008, published 2009).

Test system: Apc^Min mice

For `COc1cc(/C=C/C(=O)CC(=O)/C=C/c2ccc(O)c(OC)c2)ccc1O` [curcumin], the adenoma development is listed as “compromised adenoma development”.
